Reference: the supplement of paper PMC10307832

Assays:
Experiment in all cases: relative viability (nuclei count vs DMSO), 5 days (fraction); higher = more cells survive
Zebularine + Bortezomib = compound: O=c1ncccn1[C@@H]1O[C@H](CO)[C@@H](O)[C@H]1O [Zebularine] + CC(C)C[C@H](NC(=O)[C@H](Cc1ccccc1)NC(=O)c1cnccn1)B(O)O [Bortezomib] (partner 0.002 µM)
In short: (§1)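 Lung cancer cell lines in 1536-well plates got either a single drug or a fixed anchor-drug dose together with five library-drug doses (not always all listed) in √10 steps, by pin tool, on the day after seeding. Nuclei were counted after 5 days, and relative viability is the treated-to-vehicle ratio of nuclei counts. Values are medians of duplicate plates.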

Zebularine + Palbociclib = compound: O=c1ncccn1[C@@H]1O[C@H](CO)[C@@H](O)[C@H]1O [Zebularine] + CC(=O)c1c(C)c2cnc(Nc3ccc(N4CCNCC4)cn3)nc2n(C2CCCC2)c1=O [Palbociclib] (partner 0.5 µM)
In short: as §1

Zebularine + AZD7762 = compound: O=c1ncccn1[C@@H]1O[C@H](CO)[C@@H](O)[C@H]1O [Zebularine] + NC(=O)Nc1cc(-c2cccc(F)c2)sc1C(=O)N[C@H]1CCCNC1 [AZD7762] (partner 0.2 µM)
In short: as §1

BI-D1870 + Alpelisib = compound: CC(C)CCN1c2nc(Nc3cc(F)c(O)c(F)c3)ncc2N(C)C(=O)C1C [BI-D1870] + Cc1nc(NC(=O)N2CCC[C@H]2C(N)=O)sc1-c1ccnc(C(C)(C)C(F)(F)F)c1 [Alpelisib] (partner 2 µM)
In short: as §1

Row | Cell Line | relative viability (Zebularine + Bortezomib; first compound 1 µM) | relative viability (Zebularine + Bortezomib; first compound 3.162 µM) | relative viability (Zebularine + Bortezomib; first compound 10 µM) | relative viability (Zebularine + Bortezomib; first compound 31.62 µM) | relative viability (Zebularine + Bortezomib; first compound 100 µM) | relative viability (Zebularine + Palbociclib; first compound 1 µM) | relative viability (Zebularine + Palbociclib; first compound 3.162 µM) | relative viability (Zebularine + Palbociclib; first compound 10 µM) | relative viability (Zebularine + Palbociclib; first compound 31.62 µM) | relative viability (Zebularine + Palbociclib; first compound 100 µM) | relative viability (Zebularine + AZD7762; first compound 1 µM) | relative viability (Zebularine + AZD7762; first compound 3.162 µM) | relative viability (Zebularine + AZD7762; first compound 10 µM) | relative viability (Zebularine + AZD7762; first compound 31.62 µM) | relative viability (Zebularine + AZD7762; first compound 100 µM) | relative viability (BI-D1870 + Alpelisib; first compound 0.04 µM) | relative viability (BI-D1870 + Alpelisib; first compound 0.1265 µM) | relative viability (BI-D1870 + Alpelisib; first compound 0.4 µM) | relative viability (BI-D1870 + Alpelisib; first compound 1.265 µM) | relative viability (BI-D1870 + Alpelisib; first compound 4 µM)
1 | NCI-H1355 | 1.3 | 1.2 | 0.844 | 0.493 | 0.335 | 0.402 | 0.371 | 0.384 | 0.303 | 0.252 | 0.722 | 0.8 | 0.543 | 0.588 | 0.338 | 0.848 | 0.768 | 0.804 | 0.884 | 0.716
2 | HOP-62 | 0.593 | 0.741 | 0.547 | 0.201 | 0.143 | 0.496 | 0.437 | 0.218 | 0.158 | 0.152 | 0.649 | 0.658 | 0.303 | 0.307 | 0.247 | 1.21 | 1 | 1.02 | 1.05 | 1.2
3 | NCI-H2085 | 1.12 | 0.971 | 0.828 | 1.06 | 0.683 | 0.451 | 0.47 | 0.509 | 0.552 | 0.394 | 1.11 | 1.07 | 0.788 | 1.13 | 0.66 | 0.986 | 0.886 | 0.92 | 0.938 | 0.74
